Measurements as given in ChEMBL document CHEMBL1201862, “PubChem BioAssay data set” (2004).
The source made the active and inactive calls.

What was measured:
Beta-galactosidase = Beta-galactosidase (Escherichia coli, UniProt Q8VNN2); test: PubChem AID 485352; assay type: functional
[1] = molecular target: T1, Type-1 angiotensin II receptor (Homo sapiens, UniProt P30556); test: AT1 receptor antagonists, dose response, selectivity assay for APJ receptor antagonist project, cell-based, uHTS hits (AID 463214); assay type: functional;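 further: antagonist potency against angiotensin II stimulated AT1 response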
T1 sequence (P30556 whole entry): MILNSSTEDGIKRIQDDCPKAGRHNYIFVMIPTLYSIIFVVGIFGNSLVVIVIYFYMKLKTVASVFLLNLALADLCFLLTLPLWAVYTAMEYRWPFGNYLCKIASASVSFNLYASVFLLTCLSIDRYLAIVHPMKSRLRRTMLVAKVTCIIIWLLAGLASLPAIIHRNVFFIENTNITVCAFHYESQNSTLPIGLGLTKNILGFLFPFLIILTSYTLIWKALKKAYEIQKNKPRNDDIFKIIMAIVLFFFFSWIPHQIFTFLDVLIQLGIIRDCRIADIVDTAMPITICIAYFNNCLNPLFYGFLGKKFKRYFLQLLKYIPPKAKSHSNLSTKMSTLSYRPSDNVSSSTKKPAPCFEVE

[2] = molecular target: Long-chain-fatty-acid--AMP ligase FadD28 (Mycobacterium tuberculosis, UniProt P9WQ59); test: Fluorescence polarization aasay to screen for inhibitors that compete for the binding of FadD28 to a bisubstrate Measured in Biochemical System Using Plate Reader - 2147-01_Inhibitor_Dose_CherryPick_Activity.; assay type: functional, Mycobacterium tuberculosis H37Rv
[3] = molecular target: T2, Corticotropin-releasing factor receptor 2/Corticotropin-releasing factor-binding protein (Homo sapiens, UniProt P24387+Q13324); test: Dose Response confirmation of uHTS hits for small molecule antagonists of the CRF-binding protein and CRF-R2 receptor complex.; assay type: functional; settings: read-out: IC50_Mean
T2 sequence (Q13324 whole entry): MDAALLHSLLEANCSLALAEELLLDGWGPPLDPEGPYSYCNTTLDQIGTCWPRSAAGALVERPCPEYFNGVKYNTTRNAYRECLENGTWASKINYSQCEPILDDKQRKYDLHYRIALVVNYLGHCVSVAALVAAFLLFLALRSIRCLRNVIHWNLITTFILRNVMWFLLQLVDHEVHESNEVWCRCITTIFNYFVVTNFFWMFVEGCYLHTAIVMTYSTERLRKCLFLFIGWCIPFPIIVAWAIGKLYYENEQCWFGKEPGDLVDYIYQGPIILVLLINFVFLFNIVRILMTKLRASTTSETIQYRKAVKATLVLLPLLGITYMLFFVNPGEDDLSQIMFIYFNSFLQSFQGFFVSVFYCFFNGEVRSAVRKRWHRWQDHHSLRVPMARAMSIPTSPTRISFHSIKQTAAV
T2 sequence (P24387 whole entry): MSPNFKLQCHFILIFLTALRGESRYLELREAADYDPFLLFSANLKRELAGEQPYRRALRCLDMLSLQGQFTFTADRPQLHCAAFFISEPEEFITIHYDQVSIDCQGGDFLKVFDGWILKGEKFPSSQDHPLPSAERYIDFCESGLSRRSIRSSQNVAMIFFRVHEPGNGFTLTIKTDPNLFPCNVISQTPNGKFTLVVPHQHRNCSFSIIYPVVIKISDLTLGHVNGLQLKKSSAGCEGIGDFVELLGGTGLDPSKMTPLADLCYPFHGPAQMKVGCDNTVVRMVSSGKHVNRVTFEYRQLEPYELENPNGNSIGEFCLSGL

[4] = molecular target: T2, Corticotropin-releasing factor receptor 2/Corticotropin-releasing factor-binding protein; test: activators of CRF receptor 2 with binding protein – uHTS hits, confirmation (AID 602473); assay type: functional; settings: read-out: EC50_Mean
[5] = CRF-BP/CRF-R2 complex antagonists, dose response, cell-based, uHTS hits, 384-well (AID 651639); assay type: functional, Homo sapiens; settings: read-out: IC50_Mean
[6] = molecular target: T3, Short transient receptor potential channel 4 (Mus musculus, UniProt Q9QUQ5); test: mouse TRPC4 channel inhibitors, dose response, cell-based, HEK293 TRPC4/mu-opioid, Fluo-4 calcium (AID 434942); assay type: functional;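 further: potency of inhibitors blocking the TRPC4 calcium response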
T3 sequence (Q9QUQ5 whole entry): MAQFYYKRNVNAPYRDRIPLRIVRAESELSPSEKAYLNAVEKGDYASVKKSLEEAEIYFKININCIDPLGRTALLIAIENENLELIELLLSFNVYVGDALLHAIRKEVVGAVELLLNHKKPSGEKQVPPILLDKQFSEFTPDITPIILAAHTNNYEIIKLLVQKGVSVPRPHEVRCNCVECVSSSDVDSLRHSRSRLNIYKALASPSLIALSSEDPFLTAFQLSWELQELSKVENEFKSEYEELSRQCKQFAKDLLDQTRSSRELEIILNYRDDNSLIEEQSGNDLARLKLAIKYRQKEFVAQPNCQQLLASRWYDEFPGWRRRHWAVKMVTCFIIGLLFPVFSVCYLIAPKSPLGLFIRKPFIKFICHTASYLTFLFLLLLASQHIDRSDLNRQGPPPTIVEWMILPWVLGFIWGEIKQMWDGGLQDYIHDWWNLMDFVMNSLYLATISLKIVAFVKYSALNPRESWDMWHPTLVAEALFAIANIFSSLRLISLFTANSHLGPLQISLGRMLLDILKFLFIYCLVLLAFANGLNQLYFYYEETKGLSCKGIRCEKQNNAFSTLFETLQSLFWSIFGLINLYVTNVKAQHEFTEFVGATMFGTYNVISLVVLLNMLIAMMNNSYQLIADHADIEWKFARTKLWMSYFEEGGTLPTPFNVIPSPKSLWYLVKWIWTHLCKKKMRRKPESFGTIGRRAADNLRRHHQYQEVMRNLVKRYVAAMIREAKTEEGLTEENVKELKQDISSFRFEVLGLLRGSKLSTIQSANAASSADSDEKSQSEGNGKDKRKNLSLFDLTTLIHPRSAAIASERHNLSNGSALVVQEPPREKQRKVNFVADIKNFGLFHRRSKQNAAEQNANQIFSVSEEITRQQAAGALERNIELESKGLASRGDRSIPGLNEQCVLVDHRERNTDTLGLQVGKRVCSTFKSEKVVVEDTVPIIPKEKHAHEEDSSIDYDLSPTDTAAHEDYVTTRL

[7] = molecular target: Dual specificity tyrosine-phosphorylation-regulated kinase 1A (Rattus norvegicus, UniProt Q63470); assay type: biochemical, Homo sapiens
[8] = molecular target: T4, Low molecular weight phosphotyrosine protein phosphatase (Homo sapiens, UniProt P24666); assay type: functional; settings: read-out: IC50_Mean
T4 sequence (P24666 whole entry): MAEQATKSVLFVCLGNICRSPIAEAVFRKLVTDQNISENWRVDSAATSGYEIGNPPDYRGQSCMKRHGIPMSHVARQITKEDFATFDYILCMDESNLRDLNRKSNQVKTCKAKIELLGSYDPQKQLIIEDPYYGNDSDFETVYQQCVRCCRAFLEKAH

[9] = molecular target: T4, Low molecular weight phosphotyrosine protein phosphatase; assay type: functional; settings: read-out: IC50_Mean; remark: listed apart in the source
[10] = molecular target: T5, Tyrosine-protein phosphatase non-receptor type 22 (Homo sapiens, UniProt Q9Y2R2); test: LYP phosphatase inhibition for selectivity, dose response, selectivity assay for LMPTP inhibitor project, biochemical, fluorescence, LYP catalytic domain (AID 652006); assay type: functional; settings: read-out: IC50_Mean
T5 sequence (Q9Y2R2 whole entry): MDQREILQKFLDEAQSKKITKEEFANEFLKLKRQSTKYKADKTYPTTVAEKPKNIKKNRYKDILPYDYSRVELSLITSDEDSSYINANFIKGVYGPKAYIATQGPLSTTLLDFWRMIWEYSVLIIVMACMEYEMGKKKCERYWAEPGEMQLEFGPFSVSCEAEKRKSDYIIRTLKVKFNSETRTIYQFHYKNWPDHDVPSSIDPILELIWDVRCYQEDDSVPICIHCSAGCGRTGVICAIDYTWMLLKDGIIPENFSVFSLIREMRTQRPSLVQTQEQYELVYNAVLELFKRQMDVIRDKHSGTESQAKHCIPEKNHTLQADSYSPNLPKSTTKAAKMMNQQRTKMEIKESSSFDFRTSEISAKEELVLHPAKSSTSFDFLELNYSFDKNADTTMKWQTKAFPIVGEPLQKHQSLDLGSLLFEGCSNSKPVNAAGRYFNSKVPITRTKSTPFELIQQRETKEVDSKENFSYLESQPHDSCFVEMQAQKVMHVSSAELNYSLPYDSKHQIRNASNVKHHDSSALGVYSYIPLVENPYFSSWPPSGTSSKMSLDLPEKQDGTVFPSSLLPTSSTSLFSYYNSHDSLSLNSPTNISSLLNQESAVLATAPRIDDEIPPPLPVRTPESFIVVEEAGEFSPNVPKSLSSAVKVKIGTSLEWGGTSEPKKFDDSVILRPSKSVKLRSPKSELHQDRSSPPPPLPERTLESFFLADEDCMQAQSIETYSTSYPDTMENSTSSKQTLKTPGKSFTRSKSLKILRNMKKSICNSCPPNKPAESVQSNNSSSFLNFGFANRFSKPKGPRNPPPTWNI

[11] = molecular target: T6, Probable nicotinate-nucleotide adenylyltransferase (Staphylococcus aureus (strain N315), UniProt P65502); assay type: functional, Staphylococcus aureus subsp. aureus N315;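 on IC50 Mean: confirmatory dose-response retesting of NadD inhibitor hits first found in an ultra-high-throughput screen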
[12] = molecular target: T6, Probable nicotinate-nucleotide adenylyltransferase; assay type: functional, Staphylococcus aureus subsp. aureus N315; settings: read-out: IC50_Mean
[13] = NIH/3T3 fibroblast cytotoxicity, dose response, cytotoxicity control for T. cruzi growth inhibitor project, cell-based, cherry-pick samples, set 2 (AID 651817); assay type: functional; settings: NIH3T3
[14] = molecular target: T7, Methionyl-tRNA synthetase, putative (Trypanosoma brucei brucei, UniProt Q38C91); assay type: functional, Trypanosoma brucei brucei strain 927/4 GUTat10.1
[15] = Counterscreen for inhibitors of Trypanosoma brucei methionyl tRNA synthetase (MetRS): Luminescence-based cell-based high throughput dose response assay to identify compounds that are cytotoxic to Jurkat human T lymphocyte cells.; assay type: functional
[16] = molecular target: T7, Methionyl-tRNA synthetase, putative; assay type: functional, Trypanosoma brucei brucei strain 927/4 GUTat10.1; remark: listed apart in the source

T7 sequence (Q38C91 whole entry): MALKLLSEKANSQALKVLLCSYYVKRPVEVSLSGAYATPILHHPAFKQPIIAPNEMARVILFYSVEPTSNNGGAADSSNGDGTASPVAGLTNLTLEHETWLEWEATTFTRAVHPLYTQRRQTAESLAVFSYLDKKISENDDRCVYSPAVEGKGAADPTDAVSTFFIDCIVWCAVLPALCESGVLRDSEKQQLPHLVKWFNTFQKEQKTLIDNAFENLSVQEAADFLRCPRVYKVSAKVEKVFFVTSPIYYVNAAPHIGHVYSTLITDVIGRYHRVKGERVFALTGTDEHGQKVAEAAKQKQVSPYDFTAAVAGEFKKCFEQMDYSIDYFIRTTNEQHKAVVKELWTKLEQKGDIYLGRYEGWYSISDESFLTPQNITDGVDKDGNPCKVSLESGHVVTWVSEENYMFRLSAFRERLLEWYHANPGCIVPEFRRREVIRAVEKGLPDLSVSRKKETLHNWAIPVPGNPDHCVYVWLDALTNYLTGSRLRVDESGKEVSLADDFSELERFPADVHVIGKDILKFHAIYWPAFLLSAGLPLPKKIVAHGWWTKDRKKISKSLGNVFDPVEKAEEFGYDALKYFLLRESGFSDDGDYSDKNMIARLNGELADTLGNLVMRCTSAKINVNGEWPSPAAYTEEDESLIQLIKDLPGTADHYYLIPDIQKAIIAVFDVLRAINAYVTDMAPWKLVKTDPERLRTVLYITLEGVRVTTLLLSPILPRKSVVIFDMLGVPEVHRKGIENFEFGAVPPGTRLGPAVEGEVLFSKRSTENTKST
T6 sequence (P65502 whole entry): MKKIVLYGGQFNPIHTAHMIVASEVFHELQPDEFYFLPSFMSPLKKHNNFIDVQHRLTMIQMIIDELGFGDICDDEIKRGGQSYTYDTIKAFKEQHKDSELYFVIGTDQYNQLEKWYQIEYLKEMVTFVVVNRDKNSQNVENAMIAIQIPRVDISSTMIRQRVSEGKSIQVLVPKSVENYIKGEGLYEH
Beta-galactosidase, sequence (Q8VNN2 whole entry): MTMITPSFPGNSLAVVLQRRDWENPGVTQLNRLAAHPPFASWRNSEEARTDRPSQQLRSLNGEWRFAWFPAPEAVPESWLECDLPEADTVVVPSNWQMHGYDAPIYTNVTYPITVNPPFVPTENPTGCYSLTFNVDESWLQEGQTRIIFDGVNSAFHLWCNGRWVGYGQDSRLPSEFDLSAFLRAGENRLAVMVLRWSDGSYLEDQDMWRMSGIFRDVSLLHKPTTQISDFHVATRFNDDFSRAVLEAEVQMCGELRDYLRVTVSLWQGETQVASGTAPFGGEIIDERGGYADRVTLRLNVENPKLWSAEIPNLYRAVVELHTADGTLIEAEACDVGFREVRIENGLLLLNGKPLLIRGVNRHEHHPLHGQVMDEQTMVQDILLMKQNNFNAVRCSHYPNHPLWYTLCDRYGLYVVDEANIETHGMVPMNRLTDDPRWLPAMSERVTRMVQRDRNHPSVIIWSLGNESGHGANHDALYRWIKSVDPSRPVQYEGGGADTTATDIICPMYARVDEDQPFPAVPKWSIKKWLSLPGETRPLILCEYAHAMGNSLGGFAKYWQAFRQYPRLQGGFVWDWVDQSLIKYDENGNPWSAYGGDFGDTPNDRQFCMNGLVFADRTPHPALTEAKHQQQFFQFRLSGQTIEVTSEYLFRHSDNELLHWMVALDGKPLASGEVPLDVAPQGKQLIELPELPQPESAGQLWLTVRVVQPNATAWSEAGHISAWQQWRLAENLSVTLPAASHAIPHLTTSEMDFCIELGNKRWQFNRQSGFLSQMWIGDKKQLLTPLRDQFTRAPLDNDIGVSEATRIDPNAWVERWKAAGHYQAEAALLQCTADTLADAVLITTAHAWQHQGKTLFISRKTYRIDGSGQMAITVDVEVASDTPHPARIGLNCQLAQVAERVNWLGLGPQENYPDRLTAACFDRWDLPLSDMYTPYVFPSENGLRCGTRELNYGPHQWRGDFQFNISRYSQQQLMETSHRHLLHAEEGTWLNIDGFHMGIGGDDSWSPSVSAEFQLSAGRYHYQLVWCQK
Long-chain-fatty-acid--AMP ligase FadD28, sequence (P9WQ59 whole entry): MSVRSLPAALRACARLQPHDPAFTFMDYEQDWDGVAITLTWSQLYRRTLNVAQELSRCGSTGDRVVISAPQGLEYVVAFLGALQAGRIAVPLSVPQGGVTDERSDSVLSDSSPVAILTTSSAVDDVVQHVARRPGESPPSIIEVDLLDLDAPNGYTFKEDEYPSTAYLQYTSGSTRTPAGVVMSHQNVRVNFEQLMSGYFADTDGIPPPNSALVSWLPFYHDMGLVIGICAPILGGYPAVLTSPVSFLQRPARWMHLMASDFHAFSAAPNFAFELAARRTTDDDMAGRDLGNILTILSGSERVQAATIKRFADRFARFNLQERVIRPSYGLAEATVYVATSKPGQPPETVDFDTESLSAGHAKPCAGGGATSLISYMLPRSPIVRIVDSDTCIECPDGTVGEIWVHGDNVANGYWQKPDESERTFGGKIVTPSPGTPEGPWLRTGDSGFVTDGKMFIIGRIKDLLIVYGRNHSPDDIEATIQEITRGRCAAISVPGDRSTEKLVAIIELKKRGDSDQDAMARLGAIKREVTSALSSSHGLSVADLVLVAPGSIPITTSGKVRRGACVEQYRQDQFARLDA

In the case of Cc1ccc(NC(=S)NNC(=O)c2ccc(N3CCOCC3)c([N+](=O)[O-])c2)cc1Cl, the EC50 (Beta-galactosidase) is reported as > 40 µM (inactive), the IC50 [1] is reported as > 40 µM (not active) and the AC50 [2] is reported as 30.9 µM (active).
For CC(=O)NC(Cc1ccc(C)cc1)C(=O)NC1CCN(c2ncccc2[N+](=O)[O-])CC1 (configuration not stated), the IC50 [3] was 2.09 µM (active), the EC50 [4] was > 53 µM (inactive) and the IC50 [5] was 5.07 µM (active).
With Cc1cc(N2CCC(C)CC2)nc2cccc(O)c12 the EC50 [6] was 0.335 µM (active), the AC50 [7] was 14.3 µM (active) and the IC50 [8] was 9.87 µM (active). The IC50 [9] was 13.2 µM (active) and the IC50 [10] was 80 µM (inactive).
For Nc1[nH]c(C(=O)c2ccccc2)c(-c2ccccc2Br)c1C(=O)NCc1ccc(-c2ccccc2)cc1, the IC50 [11] was 26.5 µM (active) and the IC50 [12] was 65.9 µM (active).
In the case of Cc1ccc(S(=O)(=O)N(C)C[C@@H]2Oc3c(NC(=O)c4nc5ccccc5s4)cccc3C(=O)N([C@@H](C)CO)C[C@@H]2C)cc1, the AC50 [13] is reported as 39 µM (inactive).
With CSC[C@H]1CN(Cc2cccnc2)C(=O)[C@@H]1CC(=O)Nc1ccc(Br)cc1 the IC50 [14] was 7.58 µM (active), the IC50 [15] was 83.3 µM (inactive) and the IC50 [16] was 3.02 µM (active).
